Measured values: patent publication US8420679B2, “Aminothiazole derivatives and their use as CRF receptor ligands” (Sanofi, priority 1999, dated 2013)
Counter-ions that a name gives are not always drawn.

melting point [°C]	Compound
70	C=CCN(c1nc(-c2ccc(OC)cc2Cl)c(C)s1)C(COC)c1ccccc1 (centres unmarked) (as salt: hydrochloride) (hydrate or solvate) [Example 23, Allyl-[4-(2-chloro-4-methoxyphenyl)-5-methylthiazol-2-yl]-(2-methoxy-1-phenylethyl)amine]
70	CC#CCN(c1nc(-c2ccc(OC)cc2Cl)c(C)s1)C(COC)c1ccccc1 (centres unmarked) (as salt: hydrochloride) (hydrate or solvate) [Example 24, But-2-ynyl-[4-(2-chloro-4-methoxyphenyl)-5-methylthiazol-2-yl]-[2-methoxy-1-phenylethyl]amine]
